Data set [1] concerns Phytophthora infestans. Format: in vivo. The note with it: tomato plants, spray, 500 ppm, grading 5 days after contamination.
In another data set the test system is Botrytis cinerea. Nature of the data set: In vivo test on Botrytis cinerea (grey mould). To be noted: gherkin plants, spray, 500 ppm, grading 4/5 days after contamination. The method, then: The active ingredients tested are prepared by homogenization in a mixture of acetone/Tween/DMSO, then diluted with water to obtain the desired active material
Gherkin plants (Vert petit de Paris variety), sown on a 50/50 peat soil-pozzolana substrate in starter cups and grown at 18-20° C., are treated at the cotyledon Z11 stage by spraying with the active ingredient prepared as described above.
Plants, used as controls, are treated with an aqueous solution not containing the active material. After 24 hours, the plants are contaminated by spraying them with an aqueous suspension of cryopreserved Botrytis cinerea spores (50.000 spores per ml) on upper surface of the leaves. The spores are suspended in a nutrient solution composed of: • 10 g/L of PDB; • 50 g/L of D-fructose; • 2 g/L of NH4NO3; • 1 g/L of KH2PO4.
The contaminated cucumber plants are settled for 4/5 days in a climatic room at 17° C. (day/night) and at 80% relative humidity.
Grading is carried out 4/5 days after the contamination, in comparison with the control plants.
(§1) Under these conditions, good (at least 70%) or total protection is observed at a dose of 500 ppm with the following compounds: […]

A further data set deals with Sphaerotheca fuliginea. Nature of the data set: In vivo test on Sphaerotheca fuliginea (cucurbits powdery mildew). The note with it: gherkin plants, spray, 500 ppm, grading 12 days after contamination. The method, then:
(§2) The active ingredients tested are prepared by homogenization in a mixture of acetone/tween/DMSO, then diluted with water to obtain the desired active material.
Gherkin plants (Vert petit de Paris variety) in starter cups, sown on a 50/50 peat soil-pozzolana substrate and grown at 20° C./23° C., are treated at the cotyledon Z10 stage by spraying with the aqueous suspension described above. Plants, used as controls, are treated with an aqueous solution not containing the active material.
After 24 hours, the plants are contaminated by spraying them with an aqueous suspension of Sphaerotheca fuliginea spores (100.000 spores per ml). The spores are collected from a contaminated plants. The contaminated gherkin plants are incubated at about 20° C./25° C. and at 60/70% relative humidity.
Grading (% of efficacy) is carried out 12 days after the contamination, in comparison with the control plants.
as §1

Another data set has as its system Uromyces appendiculatus. Nature of the data set: In vivo test on Uromyces appendiculatus (brown rust of bean). To be noted: Saxa variety plants, spray, 500 ppm, grading 10 days after contamination.
In data set [2] the test system is Mycosphaerella graminicola. Nature of the data set: In vivo test on Mycosphaerella graminicola (wheat leaf spot). To be noted: wheat plants, spray, 500 ppm, grading 21 to 28 days after contamination. The method in brief: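 Scipion wheat at 1-leaf stage was sprayed with compound suspension (acetone/tween/DMSO diluted in water), then inoculated 24 h later with spores (500.000/ml). Plants were held 72 h at 18° C and 100% RH, then 21 to 28 days at 90% RH. Efficacy was graded as % versus untreated controls.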

The next data set relates to Puccinia recondita. As to the kind of experiment: In vivo test on Puccinia recondita (brown rust). To be noted: wheat plants, spray, 500 ppm, grading 10 days after contamination. The method in brief:
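Wheat (Scipion) at the 1-leaf stage sprayed with compound suspension (acetone/tween/DMSO diluted in water), then inoculated 24 h later with Puccinia recondita spores at 100.000 spores per ml. Plants were held 24 h at 20 °C/100% RH, then 10 days at 20 °C/70% RH; protection graded 10 days post-inoculation versus untreated controls.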

The conditions of data set [3]: pH 2.7.
The nature of data set [4]: Measurement of log P values by HPLC on reversed phase columns (EEC directive 79/831 Annex V.A8). The note with it: pH 2.7.
A further data set concerns Alternaria brassicae. As to the kind of experiment: In vivo test on Alternaria brassicae (leaf spot of crucifers). The note with it: radish plants, spray, 500 ppm, grading 6 to 7 days after contamination. The method, then: as §2
Radish plants (Pernot variety), sown on a 50/50 peat soil-pozzolana substrate in starter cups and grown at 18-20° C., are treated at the cotyledon stage by spraying with the active ingredient prepared as described above.
Plants, used as controls, are treated with the mixture of acetone/tween/water not containing the active material.
After 24 hours, the plants are contaminated by spraying them with an aqueous suspension of Alternaria brassicae spores (40,000 spores per cm^3). The spores are collected from a 12 to 13 days-old culture.
The contaminated radish plants are incubated for 6-7 days at about 18° C., under a humid atmosphere.
Grading is carried out 6 to 7 days after the contamination, in comparison with the control plants.
Under these conditions, good protection (at least 70%) is observed at a dose of 500 ppm with the following compounds: […]

The test system of a further data set is Pyrenophora teres. As to the kind of experiment: In vivo test on Pyrenophora teres (barley net blotch). The note with it: barley plants, spray, 500 ppm, grading 12 days after contamination. On the procedure:
The active ingredients tested are prepared by homogenization in a mixture of acetone/Tween/DMSO, then diluted with water to obtain the desired active material concentration.
Barley plants (Plaisant variety), sown on a 50/50 peat soil-pozzolana substrate in starter cups and grown at 22° C. (12 h)/20° C. (12 h), are treated at the 1-leaf stage (10 cm tall) by spraying with the active ingredient prepared as described above.
Plants, used as controls, are treated with an aqueous solution not containing the active material.
After 24 hours, the plants are contaminated by spraying them with an aqueous suspension of Pyrenophora teres spores (12.000 spores per ml). The spores are collected from a 12-day-old culture.
The contaminated barley plants are incubated for 24 hours at about 20° C. and at 100% relative humidity, and then for 12 days at 80% relative humidity.
Grading is carried out 12 days after the contamination, in comparison with the control plants.
Under these conditions, good (at least 70%) is observed at a dose of 500 ppm with the following compounds: […]

Data set [5] deals with Phytophthora infestans. Format: in vivo. The note with it: tomato, preventive spray, 100 ppm of active ingredient, evaluated 7 days after inoculation.
In the next data set the test system is Plasmopara viticola. Nature of the data set: Plasmopara test (grapevines)/preventive. Format: in vivo. The note with it: preventive spray, 10 ppm of active ingredient, evaluated 6 days after inoculation. In short, it runs like this:
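Young grapevines sprayed preventively with compound formulated in acetone/dimethylacetamide with emulsifier, diluted in water, then inoculated with P. viticola spores after drying. Held 1 day at ~20 °C/100% RH, 4 days in greenhouse at ~21 °C/~90% RH, then misted for 1 day. Efficacy scored 6 days post-inoculation (0% = untreated control, 100% = no disease).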

Another data set deals with Pythium aphanidermatum. As to the kind of experiment: Pythium test (cucumber)/seed treatment. Format: in vivo. The note with it: 10 g/dt seed of active ingredient, emerged seedlings after 7 days. On the procedure:
(§3) The test is performed under greenhouse conditions.
Cucumber seeds, treated with the active compound or compound combinations, solved in N-methyl-2-pyrrolidon and diluted with water to the desired dosages, were sown in 6*6 cm pots containing 4 cm of a 1:1 mix of steamed field soil and sand.
Perlite was incubated with mycelium fragments of Pythium aphanidermatum. 5 ml of infected perlite was scattered between the treated […] seeds. Seeds were then covered by the 1:1 mix of steamed field soil and sand. Pots were incubated in the greenhouse 7 days at 24° C. and 80% relative humidity. Assessment consisted of counting of emerged seedlings. 0% means an efficacy which corresponds to that of the control, while an efficacy of 100% means that all seedlings have emerged.

Another data set concerns Pythium ultimum. Nature of the data set: Pythium test (cotton)/seed treatment. Format: in vivo. To be noted: 10 g/dt seed of active ingredient, emerged seedlings after 7 days. On the procedure:
as §3
Cotton seeds, treated with the active compound or compound combinations, solved in N-methyl-2-pyrrolidon and diluted with water to the desired dosages, were sown in 6*6 cm pots containing 4 cm of a 1:1 mix of steamed field soil and sand.
Perlite was incubated with mycelium fragments of Pythium ultimum. 1 ml of infected perlite was scattered between the treated cotton seeds. Seeds were then covered by light expanded clay aggregate. Pots were incubated in the greenhouse 7 days at 20° C. and 80% relative humidity.
(§4) Assessment consisted of counting of emerged seedlings. 0% means an efficacy which corresponds to that of the control, while an efficacy of 100% means that all seedlings have emerged.

For another data set, the system named is Pythium irregulare. As to the kind of experiment: Pythium test (corn)/seed treatment. Format: in vivo. The note with it: 10 g/dt seed of active ingredient, emerged seedlings after 7 days at 10° C. then 14 days at 20° C. The method, then:
as §3
Corn seeds, treated with the active compound or compound combinations, solved in N-methyl-2-pyrrolidon and diluted with water to the desired dosages, were sown in 6*6 cm pots containing 4 cm of a 1:1 mix of steamed field soil and sand.
Perlite was incubated with mycelium fragments of Pythium irregulare. 5 ml of infected perlite was scattered between the treated cotton seeds. Seeds were than covered by the 1:1 mix of steamed field soil and sand. Pots were incubated in the greenhouse 7 days at 10° C. and 80% relative humidity and then 14 days at 20° C. and 80% relative humidity.
as §4

We go through 9 molecules from patent publication US9090600B2, “Fungicidal 4-substituted-3-{phenyl[(heterocyclylmethoxy)imino]methyl}-1,2,4-oxadizol-5(4H)-one derivatives” (BAYER INTELLECTUAL PROPERTY GMBH, priority 2011, dated 2015).

Each structure is given as a SMILES string. Like-named read-outs stand apart in the source and are kept apart here. Marks after values point to notes of the source that are not given here.

Consider `Cn1c(/C(=N\OCc2cccc(N)n2)c2cccc(F)c2)noc1=O` [Example 83], for which the Eff. % was 100% in the data set with Phytophthora infestans [1]; 73% in the data set with Botrytis cinerea; 85% in the data set on Sphaerotheca fuliginea; 75% with Uromyces appendiculatus; 93% in data set [2]; 89% with Puccinia recondita. In addition, the LogP in data set [3] was 1.34 [a].
Consider `CCC(CC)C(=O)Nc1cccc(CO/N=C(/c2ccccc2)c2noc(=O)n2C)n1` [Example 124], for which the Eff. % came to 99% with Phytophthora infestans [1] and 80% in the data set with Sphaerotheca fuliginea. In data set [3], the LogP was 3.71 [a].
For the molecule `COc1ccc(OC)c(CC(=O)Nc2cccc(CO/N=C(/c3ccccc3)c3noc(=O)n3C)n2)c1` [Example 190], the Eff. % is given as 100% in the data set on Phytophthora infestans [1]; 98% with Sphaerotheca fuliginea; 83% with Uromyces appendiculatus; 100% in [2]; 94% in the data set on Puccinia recondita. Further, the LogP in data set [3] is 3.6 [a].
As for `CCN(CC)c1cccc(CO/N=C(/c2ccccc2)c2noc(=O)n2C)n1` [Example 197, 3-[(Z)-({[6-(diethylamino)pyridin-2-yl]methoxy}imino)(phenyl)methyl]-4-methyl-1,2,4-oxadiazol-5(4H)-one], the Eff. % was found to be 100% in the data set with Phytophthora infestans [1]; 80% with Sphaerotheca fuliginea; 89% with Uromyces appendiculatus; 96% in data set [2]; 94% with Puccinia recondita. In [4], this molecule returned a chromatographic logP of 2.63.
Consider `CCn1c(/C(=N\OCc2cccc(N)n2)c2ccccc2)noc1=O` [Example 209], for which the Eff. % in the data set on Phytophthora infestans [1] was 84%; with Sphaerotheca fuliginea, 75%; with Puccinia recondita, 88%; in the data set with Alternaria brassicae, 70%. Also, the LogP in [3] was 1.42 [a].
Consider `CCCCCC(=O)Nc1cccc(CO/N=C(/c2cccc(OC)c2)c2noc(=O)n2C)n1` [Example 211], for which the Eff. % in the data set with Phytophthora infestans [1] was 91%; in the data set on Botrytis cinerea, 84%; with Sphaerotheca fuliginea, 72%; in the data set on Puccinia recondita it was 71%. In addition, the LogP in data set [3] is 3.92 [a].
For the molecule `COc1cccc(C(=O)Nc2nc(CO/N=C(/c3ccccc3)c3noc(=O)n3C)cs2)c1` [Example 212], the Eff. % with Phytophthora infestans [1] worked out at 73%; in the data set on Sphaerotheca fuliginea, 100%; in the data set with Uromyces appendiculatus it was 100%; with Pyrenophora teres, 97%; in data set [2], 100%; in the data set on Puccinia recondita, 89%. Besides, the Eff. % in the data set with Alternaria brassicae is 70%. The LogP in [3] is 3.58 [a].
Take `C#CCC(C)OC(=O)Nc1cccc(CO/N=C(/c2ccccc2)c2noc(=O)n2C)n1` (stereo not drawn) [Example 226]: the Eff. % in the data set on Phytophthora infestans [5] turned out to be 92%; in the data set on Plasmopara viticola, 100%; in the data set with Pythium aphanidermatum, 99%; in the data set with Pythium ultimum, 93%; in the data set on Pythium irregulare it was 90%; in the data set on Phytophthora infestans [1] it was 100%. Further, in data set [3], the LogP was 3.57 [a].
In the case of `C#CCOC(=O)Nc1cccc(CO/N=C(/c2ccccc2)c2noc(=O)n2C)n1` [Example 342], the Eff. % in the data set on Phytophthora infestans [5] is reported as 92%; in the data set on Plasmopara viticola, 100%; with Pythium aphanidermatum, 100%; with Pythium ultimum, 100%; in the data set with Pythium irregulare, 100%; with Phytophthora infestans [1] it was 99%. In data set [3], the lipophilicity (LogP) was 3.13 [a].
